Where “and” joins values, the source holds several entries; their conditions need not be identical. Equal entries are not always repeated. Where two headings read alike, the source gives them in different places.
Tests used:
[1] = Single-dose crossover pharmacokinetics of IR, MR1 and MR2 capsules (8 mg); assay type: in vivo, human; parameters: AUC72hr: unit not given beside the values; conditions: plasma, following a single 8 mg dose of IR CX-8998
[2] = tested on: harmaline-induced tremor model in rats; conditions: 3 ascending doses per os; cited from earlier work
[3] = assay type: in vivo; conditions: rat NOAEL 300 mg/kg
[4] = assay type: in vivo; conditions: dog NOAEL 30 mg/kg

SMILES | Cmax [1] | harmaline-induced tremor [2] | physiologic tremor before administration of harmaline [2] | Total safety margin, AUC24 hr (animal AUC / human estimated AUC at steady state, 10 mg BID) ([3]; Day 90, female) | Total safety margin, Css (animal Cmax / human estimated Css at steady state, 10 mg BID) ([3]; Day 90, female) | Total safety margin, AUC24 hr (animal AUC / human estimated AUC at steady state, 10 mg BID) ([3]; Day 90, male) | Total safety margin, Css (animal Cmax / human estimated Css at steady state, 10 mg BID) ([3]; Day 90, male) | Total safety margin, AUC24 hr (animal AUC / human estimated AUC at steady state, 10 mg BID) ([4]; Day 90, female) | Total safety margin, Css (animal Cmax / human estimated Css at steady state, 10 mg BID) ([4]; Day 90, female) | Total safety margin, AUC24 hr (animal AUC / human estimated AUC at steady state, 10 mg BID) ([4]; Day 90, male) | Total safety margin, Css (animal Cmax / human estimated Css at steady state, 10 mg BID) ([4]; Day 90, male) | AUC72hr [1]
C[C@@H](NC(=O)Cc1ccc(C(C)(C)O)cc1)c1ccc(OCC(F)(F)F)cn1 [M02] | 122 nM |  |  |  |  |  |  |  |  |  |  | 
CC1(C)C[C@@H](CN2CCC(F)(CNC(=O)c3cc(Cl)cc(Cl)c3)CC2)CCO1 [TTA-P2] |  | dose-dependent response | dose-dependent response to a reduction in physiologic tremor |  |  |  |  |  |  |  |  | 
C=C(C)c1ccc(CC(=O)N[C@H](C)c2ccc(OCC(F)(F)F)cn2)cc1 [M01] | 124 nM |  |  | 13 fold | 21 fold | 6.8 fold | 13 fold | 5.6 fold | 8 fold and 8.0 fold | 6.5 fold | 10 fold | 6876
